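Grown in 96-well plates, cells were treated for 48 hours with each compound at five concentrations. Insufficient inhibition: endpoint recorded as highest concentration tested. At the GI50, growth is halved. TGI marks complete inhibition of growth.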
Legend:
Assay in all cases: inhibition of tumour cell growth, NCI panel, 48 h
786-0 renal = tested on: 786-0 renal
A498 renal = tested on: A498 renal
BT-549 breast = tested on: BT-549 breast
CCRF-CEM leukemia = tested on: CCRF-CEM leukemia
COLO 205 colon = tested on: COLO 205 colon
HOP-62 NSCLC = tested on: HOP-62 NSCLC
MOLT-4 leukemia = tested on: MOLT-4 leukemia
PC-3 prostate = tested on: PC-3 prostate
RPMI-8226 leukemia = tested on: RPMI-8226 leukemia
SF-295 CNS = tested on: SF-295 CNS

COC(=O)[C@]12CC[C@@H](C)[C@H](C)[C@@H]1C1=CC[C@@H]3[C@@]4(C)C=C(O)C(=O)C(C)=C4CC[C@@]3(C)[C@]1(C)CC2
GI50 (786-0 renal): 16.4 µM
TGI (786-0 renal): 32.6 µM
GI50 (A498 renal): 19.5 µM
TGI (A498 renal): 34.1 µM
GI50 (BT-549 breast): 15.5 µM
TGI (BT-549 breast): 37.4 µM
GI50 (CCRF-CEM leukemia): 5.26 µM
TGI (CCRF-CEM leukemia): 23.4 µM
GI50 (COLO 205 colon): 12.5 µM
TGI (COLO 205 colon): 30.1 µM
GI50 (HOP-62 NSCLC): 18 µM
TGI (HOP-62 NSCLC): 35.9 µM
GI50 (MOLT-4 leukemia): 4.71 µM
TGI (MOLT-4 leukemia): 20.7 µM
GI50 (PC-3 prostate): 4.16 µM
TGI (PC-3 prostate): 18.4 µM
GI50 (RPMI-8226 leukemia): 8.62 µM
TGI (RPMI-8226 leukemia): 32.8 µM
GI50 (SF-295 CNS): 15.8 µM
TGI (SF-295 CNS): 37.9 µM

CC(=O)OC1=C2C(CC3C4CC=C5CC(OC(C)=O)CCC5(C)C4CCC23C)C2C(=O)N(Cc3ccccc3)C(=O)C2C1 (stereo unspecified)
GI50 (786-0 renal): 20.5 µM
TGI (786-0 renal): > 100 µM
GI50 (A498 renal): 10.9 µM
TGI (A498 renal): 43.6 µM
GI50 (BT-549 breast): 3.53 µM
TGI (BT-549 breast): 13.5 µM
GI50 (CCRF-CEM leukemia): 3.39 µM
TGI (CCRF-CEM leukemia): > 100 µM
GI50 (COLO 205 colon): 8.12 µM
TGI (COLO 205 colon): 25 µM
GI50 (HOP-62 NSCLC): 35.9 µM
TGI (HOP-62 NSCLC): > 100 µM
GI50 (MOLT-4 leukemia): 2.93 µM
TGI (MOLT-4 leukemia): 8.37 µM
GI50 (PC-3 prostate): 4.03 µM
TGI (PC-3 prostate): > 100 µM
GI50 (RPMI-8226 leukemia): 2.78 µM
TGI (RPMI-8226 leukemia): 9.82 µM
GI50 (SF-295 CNS): 10.8 µM
TGI (SF-295 CNS): > 100 µM

O=C(CC(=O)c1ccccc1NC1=Cc2ccccc2C(=O)C1=O)C(=O)NC1=C(Cl)C(=O)c2ccccc2C1=O
TGI (786-0 renal): 10.7 µM
TGI (A498 renal): 30.3 µM
TGI (BT-549 breast): 9.14 µM
TGI (CCRF-CEM leukemia): 33.6 µM
TGI (COLO 205 colon): 31 µM
TGI (HOP-62 NSCLC): 17.9 µM
TGI (MOLT-4 leukemia): 18 µM
TGI (PC-3 prostate): 6.69 µM
TGI (RPMI-8226 leukemia): 14.5 µM
TGI (SF-295 CNS): 11.7 µM

C#CC#CC#CC#CC#CC#CC#CC#CCC1OC[C@H](COC(=O)O[C@@H](C(=O)O[C@H]2C[C@@]3(O)[C@@H](OC(=O)c4ccccc4)[C@@H]4[C@]5(OC(C)=O)CO[C@@H]5C[C@H](O)[C@@]4(C)C(=O)[C@H](OC(C)=O)C(=C2C)C3(C)C)[C@@H](NC(=O)c2ccccc2)c2ccccc2)O1 (stereo partly specified)
GI50 (786-0 renal): 8.21 µM
TGI (786-0 renal): > 33.3 µM
GI50 (A498 renal): 0.494 µM
TGI (A498 renal): > 8.14 µM
GI50 (BT-549 breast): 1.01 µM
TGI (BT-549 breast): > 33.3 µM
GI50 (CCRF-CEM leukemia): 0.632 µM
TGI (CCRF-CEM leukemia): > 33.3 µM
GI50 (COLO 205 colon): 0.202 µM
TGI (COLO 205 colon): > 33.3 µM
GI50 (HOP-62 NSCLC): 1.37 µM
TGI (HOP-62 NSCLC): > 33.3 µM
GI50 (MOLT-4 leukemia): 0.443 µM
TGI (MOLT-4 leukemia): > 33.3 µM
GI50 (PC-3 prostate): 0.569 µM
TGI (PC-3 prostate): > 33.3 µM
GI50 (RPMI-8226 leukemia): 0.114 µM
TGI (RPMI-8226 leukemia): > 33.3 µM
GI50 (SF-295 CNS): 1.01 µM
TGI (SF-295 CNS): > 27.5 µM

COc1ccc(-c2[nH]ncc2-c2cc(OC)c(OC)c(OC)c2)cc1
GI50 (786-0 renal): < 0.01 µM
TGI (786-0 renal): 13.9 µM
GI50 (A498 renal): < 0.01 µM
TGI (A498 renal): < 0.0127 µM
GI50 (BT-549 breast): 0.0143 µM
TGI (BT-549 breast): 4.45 µM
GI50 (CCRF-CEM leukemia): < 0.0163 µM
TGI (CCRF-CEM leukemia): 28.8 µM
GI50 (COLO 205 colon): < 0.01 µM
TGI (COLO 205 colon): < 0.01 µM
GI50 (HOP-62 NSCLC): < 0.01 µM
TGI (HOP-62 NSCLC): > 100 µM
GI50 (MOLT-4 leukemia): 0.0308 µM
TGI (MOLT-4 leukemia): 4.66 µM
GI50 (PC-3 prostate): < 0.01 µM
TGI (PC-3 prostate): 32.5 µM
GI50 (RPMI-8226 leukemia): 0.0132 µM
TGI (RPMI-8226 leukemia): 16 µM
GI50 (SF-295 CNS): < 0.01 µM
TGI (SF-295 CNS): < 0.01 µM

CCCCC#Cc1cccc(=O)o1
GI50 (786-0 renal): > 100 µM
TGI (786-0 renal): > 100 µM
GI50 (A498 renal): 9.83 µM
TGI (A498 renal): 66.1 µM
GI50 (BT-549 breast): > 100 µM
TGI (BT-549 breast): > 100 µM
GI50 (CCRF-CEM leukemia): 20.3 µM
TGI (CCRF-CEM leukemia): > 100 µM
GI50 (COLO 205 colon): 2.23 µM
TGI (COLO 205 colon): 5.3 µM
GI50 (HOP-62 NSCLC): > 100 µM
TGI (HOP-62 NSCLC): > 100 µM
GI50 (MOLT-4 leukemia): 3.62 µM
TGI (MOLT-4 leukemia): > 100 µM
GI50 (PC-3 prostate): 25.7 µM
TGI (PC-3 prostate): > 100 µM
GI50 (RPMI-8226 leukemia): 2.03 µM
TGI (RPMI-8226 leukemia): 49.9 µM
GI50 (SF-295 CNS): > 100 µM
TGI (SF-295 CNS): > 100 µM

CC(C)(CCC(C)(C)c1ccccc1)c1ccccc1
TGI (786-0 renal): 29.5 µM
TGI (A498 renal): 33.2 µM
TGI (BT-549 breast): 37.2 µM
TGI (CCRF-CEM leukemia): 39.9 µM
TGI (COLO 205 colon): 33.5 µM
TGI (HOP-62 NSCLC): 35.4 µM
TGI (MOLT-4 leukemia): 41.4 µM
TGI (PC-3 prostate): > 100 µM
TGI (RPMI-8226 leukemia): 36.1 µM
TGI (SF-295 CNS): 31.6 µM

CN(C)CCCC(=O)Nc1ccc(Cn2nnc3c2C(=O)c2nnn(Cc4ccc(NC(=O)CCCN(C)C)cc4)c2C3=O)cc1
GI50 (786-0 renal): 18.2 µM
TGI (786-0 renal): 44.2 µM
GI50 (A498 renal): 16 µM
TGI (A498 renal): 45.3 µM
GI50 (BT-549 breast): 13.8 µM
TGI (BT-549 breast): 29.8 µM
GI50 (CCRF-CEM leukemia): 2.04 µM
TGI (CCRF-CEM leukemia): 6.35 µM
GI50 (COLO 205 colon): 1.79 µM
TGI (COLO 205 colon): 3.52 µM
GI50 (HOP-62 NSCLC): 17.2 µM
TGI (HOP-62 NSCLC): 32.8 µM
GI50 (MOLT-4 leukemia): 1.96 µM
TGI (MOLT-4 leukemia): 5.2 µM
GI50 (PC-3 prostate): 4.75 µM
TGI (PC-3 prostate): 43.4 µM
GI50 (RPMI-8226 leukemia): 3.17 µM
TGI (RPMI-8226 leukemia): 15.9 µM
GI50 (SF-295 CNS): 14.4 µM
TGI (SF-295 CNS): 31.5 µM

CCOC(=O)c1cnc2c(cnn2CC)c1NN=C(C)C
GI50 (786-0 renal): 29.6 µM
TGI (786-0 renal): > 100 µM
GI50 (A498 renal): 28.1 µM
TGI (A498 renal): > 100 µM
GI50 (BT-549 breast): 46.5 µM
TGI (BT-549 breast): > 100 µM
GI50 (CCRF-CEM leukemia): 78.3 µM
TGI (CCRF-CEM leukemia): > 100 µM
GI50 (COLO 205 colon): 58.7 µM
TGI (COLO 205 colon): > 100 µM
GI50 (HOP-62 NSCLC): 65.9 µM
TGI (HOP-62 NSCLC): > 100 µM
GI50 (MOLT-4 leukemia): 64.7 µM
TGI (MOLT-4 leukemia): > 100 µM
GI50 (PC-3 prostate): 37.5 µM
TGI (PC-3 prostate): > 100 µM
GI50 (RPMI-8226 leukemia): 74.2 µM
TGI (RPMI-8226 leukemia): > 100 µM
GI50 (SF-295 CNS): 27.6 µM
TGI (SF-295 CNS): > 100 µM

O=C1C=C(Nc2nc(C(=O)O)cc(=O)[nH]2)c2ccccc2C1=O
TGI (786-0 renal): > 100 µM
TGI (A498 renal): > 100 µM
TGI (BT-549 breast): > 100 µM
TGI (CCRF-CEM leukemia): > 100 µM
TGI (COLO 205 colon): > 100 µM
TGI (HOP-62 NSCLC): > 100 µM
TGI (MOLT-4 leukemia): > 100 µM
TGI (PC-3 prostate): > 100 µM
TGI (RPMI-8226 leukemia): > 100 µM
TGI (SF-295 CNS): > 100 µM

Nc1nc(Nc2ccc3c(c2)CCC(N2CCCC2)CC3)nn1-c1cc2c(nn1)-c1ccccc1CCC2 (stereo unspecified)
GI50 (786-0 renal): 1.1 µM
TGI (786-0 renal): 2.49 µM
GI50 (A498 renal): 0.274 µM
TGI (A498 renal): 1.24 µM
GI50 (BT-549 breast): 1.52 µM
TGI (BT-549 breast): 3.01 µM
GI50 (CCRF-CEM leukemia): 1.24 µM
TGI (CCRF-CEM leukemia): 4.67 µM
GI50 (COLO 205 colon): 1.56 µM
TGI (COLO 205 colon): 3.11 µM
GI50 (HOP-62 NSCLC): 1.5 µM
TGI (HOP-62 NSCLC): 3.11 µM
GI50 (MOLT-4 leukemia): 0.681 µM
TGI (MOLT-4 leukemia): 2.86 µM
GI50 (PC-3 prostate): 0.629 µM
TGI (PC-3 prostate): 2.14 µM
GI50 (RPMI-8226 leukemia): 1.4 µM
TGI (RPMI-8226 leukemia): 3.81 µM
GI50 (SF-295 CNS): 1.85 µM
TGI (SF-295 CNS): 3.54 µM

c1ccc2c(c1)ccc1c3ccccc3ccc21
GI50 (786-0 renal): > 50 µM
TGI (786-0 renal): > 50 µM
GI50 (A498 renal): > 50 µM
TGI (A498 renal): > 50 µM
GI50 (BT-549 breast): > 50 µM
TGI (BT-549 breast): > 50 µM
GI50 (CCRF-CEM leukemia): > 50 µM
TGI (CCRF-CEM leukemia): > 50 µM
GI50 (COLO 205 colon): > 50 µM
TGI (COLO 205 colon): > 50 µM
GI50 (HOP-62 NSCLC): > 50 µM
TGI (HOP-62 NSCLC): > 50 µM
GI50 (MOLT-4 leukemia): > 50 µM
TGI (MOLT-4 leukemia): > 50 µM
GI50 (PC-3 prostate): > 50 µM
TGI (PC-3 prostate): > 50 µM
GI50 (RPMI-8226 leukemia): > 50 µM
TGI (RPMI-8226 leukemia): > 50 µM

C=C1C(=O)O[C@H]2[C@H]1CC/C(COC(=O)C(=O)c1cn(C)c3ccc(OC)cc13)=C\CC[C@@]1(C)O[C@@H]21
GI50 (786-0 renal): 3.84 µM
TGI (786-0 renal): 7.56 µM
GI50 (A498 renal): 6.77 µM
TGI (A498 renal): 10.1 µM
GI50 (BT-549 breast): 1.75 µM
TGI (BT-549 breast): 3.28 µM
GI50 (CCRF-CEM leukemia): 2.39 µM
TGI (CCRF-CEM leukemia): 22.4 µM
GI50 (HOP-62 NSCLC): 6.46 µM
TGI (HOP-62 NSCLC): 11.9 µM
GI50 (MOLT-4 leukemia): 3.65 µM
TGI (MOLT-4 leukemia): 16 µM
GI50 (PC-3 prostate): 5.89 µM
TGI (PC-3 prostate): 10.8 µM
GI50 (RPMI-8226 leukemia): 2.34 µM
TGI (RPMI-8226 leukemia): 19.5 µM
GI50 (SF-295 CNS): 9.35 µM
TGI (SF-295 CNS): 21.8 µM

From PubChem BioAssay (NCI)
